System: MDA-MB-231 cells
Experiment: DOX cytotoxicity after delivery of DOX-loaded MSNs, trypan blue exclusion
Type: cell-based
Details: DOX loaded into MSNs delivered by the microfluidic system, after 6 hours
Description: In the experiment, doxorubicin (DOX), an anticancer drug, was loaded into MSNs and the MSNs were delivered into MDA-MB-231 cells.
Referring to FIG. 31, DOX cytotoxicity to MDA-MB-231 cells was measured by the trypan blue exclusion method, and it can be seen that approximately 85% of cancer cells were killed after 6 hours.

Question: `COc1cccc2c1C(=O)c1c(O)c3c(c(O)c1C2=O)C[C@@](O)(C(=O)CO)C[C@@H]3O[C@H]1C[C@H](N)[C@H](O)[C@H](C)O1` [DOX, doxorubicin] was tested. Which cancer cells killed did it give?
Answer: approximately 85%
